Assay results from ChEMBL document CHEMBL4024779, “Novel Terminal Bipheny-Based Diapophytoene Desaturases (CrtN) Inhibitors as Anti-MRSA/VISR/LRSA Agents with Reduced hERG Activity” (J Med Chem, 2018).

Legend:
[1] = target: T1, 4,4'-diapophytoene desaturase (4,4'-diaponeurosporene-forming) (Staphylococcus aureus (strain Newman), UniProt O07855); experiment: Inhibition of CrtN in Staphylococcus aureus Newman assessed as reduction in staphyloxanthin levels after 48 hrs by spectrophotometric method-based pigment inhibition assay; design: species or system Staphylococcus aureus subsp. aureus str. Newman
T1 sequence (O07855 whole entry): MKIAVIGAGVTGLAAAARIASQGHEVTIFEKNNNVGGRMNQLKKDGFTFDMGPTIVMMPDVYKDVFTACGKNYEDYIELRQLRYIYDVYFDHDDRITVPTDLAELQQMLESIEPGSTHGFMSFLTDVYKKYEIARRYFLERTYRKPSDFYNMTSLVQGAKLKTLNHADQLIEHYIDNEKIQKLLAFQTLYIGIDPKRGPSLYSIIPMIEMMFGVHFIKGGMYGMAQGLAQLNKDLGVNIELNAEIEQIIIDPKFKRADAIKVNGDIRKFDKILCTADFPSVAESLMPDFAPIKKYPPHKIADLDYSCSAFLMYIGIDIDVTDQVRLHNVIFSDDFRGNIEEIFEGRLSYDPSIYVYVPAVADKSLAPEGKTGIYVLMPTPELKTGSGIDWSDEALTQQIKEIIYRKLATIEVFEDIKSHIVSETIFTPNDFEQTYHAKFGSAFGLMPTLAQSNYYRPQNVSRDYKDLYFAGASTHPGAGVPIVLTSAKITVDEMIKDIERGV

[2] = Cytotoxicity against HEK293 cells after 43 hrs by Alamar blue dye-based fluorescence assay; format: cell-based; details: human
HepG2 = experiment: Cytotoxicity against human HepG2 cells after 43 hrs by Alamar blue dye-based fluorescence assay; format: cell-based; details: HepG2, 43 h

| SMILES | IC50 [1] [µM] | CC50 at 43 h [2] [µM] | IC50 (HepG2) [µM] |
| --- | --- | --- | --- |
| CN(C/C=C/c1ccc(C(F)(F)F)cc1)Cc1ccc2cc[nH]c2c1 | 0.0643 |  |  |
| CN(C/C=C/c1ccccc1C(F)(F)F)Cc1cccc2cc[nH]c12 | > 1 |  |  |
| CN(C/C=C/c1ccc(C(C)(C)C)cc1)Cc1coc2ccccc12 | > 1 |  |  |
| CN(C/C=C/c1cccc(Cl)c1)Cc1cccc2cc[nH]c12 | > 1 |  |  |
| C/C=C/CN(C)Cc1cccc2cc[nH]c12 | > 1 |  |  |
| Cc1ccccc1/C=C/CN(C)Cc1coc2ccccc12 | 0.0864 |  |  |
| CN(C/C=C/c1ccc(C(F)(F)F)cc1F)Cc1cccc2cc[nH]c12 | 0.0484 |  |  |
| CN(C/C=C/c1cccc(F)c1)Cc1cccc2cc[nH]c12 | > 1 |  |  |
| CN(CCCc1ccc(-c2ccccc2)cc1)Cc1coc2ccccc12 | > 1 |  |  |
| CN(C/C=C/c1ccc(C(F)F)cc1)Cc1cccc2cc[nH]c12 | 0.0435 |  |  |
| CN(C/C=C/c1ccc(Cl)cc1Cl)Cc1cccc2cc[nH]c12 | 0.28 |  |  |
| C/C(=C\c1ccc(-c2ccccc2)cc1)CN(C)Cc1cccc2cc[nH]c12 | > 1 |  |  |
| COc1ccc(/C=C/CN(C)Cc2cccc3cc[nH]c23)cc1F | > 1 |  |  |
| COC(=O)c1ccc(/C=C/CN(C)Cc2coc3ccccc23)cc1 | 0.0095 |  |  |
| COC(=O)c1ccc(/C=C/CN(C)Cc2cccc3cc[nH]c23)cc1 | 0.0878 |  |  |
| FC(F)(F)c1ccc(/C=C/CNCc2cccc3cc[nH]c23)cc1 | > 1 |  |  |
| CCOc1ccc(/C=C/CN(C)Cc2coc3ccccc23)cc1 | > 1 |  |  |
| COc1ccc(/C=C/CN(C)Cc2cccc3cc[nH]c23)c(F)c1 | 0.0731 |  |  |
| COc1ccccc1/C=C/CN(C)Cc1cccc2cc[nH]c12 | > 1 |  |  |
| CN(C/C=C/c1ccc(F)cc1)Cc1coc2ccccc12 | 0.0741 |  |  |
| CCN(C/C=C/c1ccc(C(F)(F)F)cc1)CC1=COC2C=CC=CC12 (stereo not drawn) | > 1 |  |  |
| CN(C/C=C/c1cccc2ccccc12)Cc1coc2ccccc12 | > 1 |  |  |
| CN(C/C=C/c1cccs1)Cc1cccc2cc[nH]c12 | > 1 |  |  |
| CN(C/C=C/c1ccccc1Cl)Cc1cccc2cc[nH]c12 | > 1 |  |  |
| CN(C/C=C/c1ccccc1)Cc1coc2ccccc12 | > 1 |  |  |

| SMILES | IC50 [1] [µM] | CC50 at 43 h [2] [µM] | IC50 (HepG2) [µM] |
| --- | --- | --- | --- |
| COc1ccc(/C=C/CN(C)Cc2coc3ccccc23)c(F)c1 | > 1 |  |  |
| CN(C/C=C/c1ccc(Cl)cc1Cl)Cc1coc2ccccc12 | 0.0062 |  |  |
| Cc1ccc(/C=C/CN(C)Cc2cccc3cc[nH]c23)cc1 | 0.199 |  |  |
| CN(CC/C=C/c1ccc(-c2ccccc2)cc1)Cc1coc2ccccc12 | > 1 |  |  |
| CN(C/C=C/C1CCCCC1)Cc1coc2ccccc12 | > 1 |  |  |
| CN(C/C=C/c1ccc(C(F)(F)F)cc1)Cc1cc2ccccc2o1 | 0.0732 |  |  |
| CC(C)N(C/C=C/c1ccc(C(F)(F)F)cc1)CC1=COC2C=CC=CC12 (stereo not drawn) | > 1 |  |  |
| CN(C/C=C/c1ccc2ccccc2c1)Cc1cccc2cc[nH]c12 | 0.132 |  |  |
| Cc1cccc(/C=C/CN(C)Cc2cccc3cc[nH]c23)c1 | > 1 |  |  |
| CN(C/C=C/c1cccc(Cl)c1)Cc1coc2ccccc12 | > 1 |  |  |
| CN(C/C=C/c1ccc([N+](=O)[O-])cc1)Cc1coc2ccccc12 | 0.0095 |  |  |
| Cc1cccc(/C=C/CN(C)Cc2coc3ccccc23)c1 | > 1 |  |  |
| CN(C/C=C/c1ccccc1C(F)(F)F)Cc1coc2ccccc12 | > 1 |  |  |
| Cc1ccccc1/C=C/CN(C)Cc1cccc2cc[nH]c12 | > 1 |  |  |
| CN(C/C=C/c1ccc(Cl)cc1)Cc1coc2ccccc12 | 0.0049 | 42.1 | 60.2 |
| CN(C/C=C/c1ccc(C(F)(F)F)cc1)Cc1coc2ccccc12 | 0.0098 |  |  |
| Cc1ccc(/C=C/CN(C)Cc2coc3ccccc23)cc1 | 0.0099 |  |  |
| CN(C/C=C/c1ccccc1)Cc1cccc2cc[nH]c12 | > 1 |  |  |
| CN(C/C=C/c1ccccc1F)Cc1cccc2cc[nH]c12 | > 1 |  |  |
| COc1ccc(/C=C/CN(C)Cc2cccc3cc[nH]c23)cc1 | 0.167 |  |  |
| CN(C/C=C/c1cccc([N+](=O)[O-])c1)Cc1coc2ccccc12 | > 1 |  |  |
| C[C@@H]1[C@H](O)[C@@H](C)/C=C/C=C/C=C/C=C/C=C/C=C/C=C/[C@H](O[C@@H]2O[C@H](C)[C@@H](O)[C@H](N)[C@@H]2O)C[C@@H]2O[C@](O)(C[C@@H](O)C[C@@H](O)[C@H](O)CC[C@@H](O)C[C@@H](O)CC(=O)O[C@H]1C)C[C@H](O)[C@H]2C(=O)O [AMPHOTERICIN B] |  | 4.2 | 3.1 |
| CN(C/C=C/C1CCCCC1)Cc1cccc2cc[nH]c12 | > 1 |  |  |
| COc1ccccc1/C=C/CN(C)Cc1coc2ccccc12 | > 1 |  |  |
| CN(C/C=C/c1cccc([N+](=O)[O-])c1)Cc1cccc2cc[nH]c12 | > 1 |  |  |
